The source of these data is patent US8278464B2, “Insecticides” (Syngenta Crop Protection LLC, priority 2006, dated 2012).

Where only a bound is given, the exact number is not on record here.

Data set [1] has as its system Heliothis virescens (Tobacco Budworm). Put plainly: Activity against Heliothis virescens, eggs on artificial diet (Example B2). It is filed as in vivo. The settings on record: 96 h, eggs 0-24 h old, incubation 4 days. The method, then:
Eggs (0-24 h old) are placed in 24-well microtiter plate on artificial diet and treated with test solutions by pipetting. After an incubation period of 4 days, samples are checked for egg mortality, larval mortality, and growth regulation.

For data set [2], the system named is Spodoptera littoralis (Egyptian Cotton Leafworm). Put plainly: Activity against Spodoptera littoralis, cotton leaf discs sprayed (Example B1). It counts as in vivo. The settings on record: foliar, 72 h, L1 larvae, checked 3 days after treatment. The text has this:
Cotton leaf discs are placed on agar in a 24-well microtiter plate and sprayed with test solutions. After drying, the leaf discs are infested with 5 L1 larvae. The samples are checked for mortality, repellent effect, feeding behaviour, and growth regulation 3 days after treatment (DAT).

In data set [3] the test system is Plutella xylostella (Diamond Back Moth). Kind of data set: Activity against Plutella xylostella, artificial diet MTP (Example B3). The settings on record: 120 h, L2 larvae, incubation 5 days. It counts as in vivo. The procedure:
(§1) 24-well microtiter plate (MTP) with artificial diet is treated with test solutions by pipetting. After drying, the MTP's are infested with larvae (L2) (10-15 per well). After an incubation period of 5 days, samples are checked for larval mortality, antifeedant and growth regulation. In this test, compounds listed in the Tables above show good activity. In particular compounds T13.1.2, T15.1.1, T15.1.91, T13.1.1, T9.1.2 (diastereomer A), T9.1.2 (diastereomer B), T16.1.1, T17.1.2 (diastereomer A), T17.1.2 (diastereomer B), T16.1.91, T13.1.92, T13.1.361, T13.1.391, T13.1.91, T13.1.6, T13.1.96, T44.1.2, T13.1.8, T13.1.23, T13.1.93, T13.1.113, T13.1.21, T13.1.111 have an activity of over 80% at 400 ppm.

For data set [4], the system named is Diabrotica balteata (Corn Root Worm). Put plainly: Activity against Diabrotica balteata, artificial diet MTP (Example B4). It counts as in vivo. The settings on record: 120 h, L2 larvae, incubation 5 days. The method, then:
as §1, with “(6-10” for “(10-15”, “B),” for “B), T16.1.1,”, “T13.1.92,” for “T13.1.92, T13.1.361, T13.1.391,”, “T13.1.23,” for “T13.1.23, T13.1.93,”

The test system of data set [5] is Myzus persicae (Green Peach Aphid). Kind of data set: Activity against Myzus persicae, systemic, pea seedlings (Example B6). To be noted: 144 h, 6 days after introduction. It counts as in vivo. The text has this:
Roots of pea seedlings, infested with an aphid population of mixed ages, are placed directly in the test solutions. 6 days after introduction, samples are checked for mortality and special effects on the plant.

Data set [6] relates to Thrips tabaci (Onion Thrips). Put plainly: Activity against Thrips tabaci, sunflower leaf discs (Example B7). It is filed as in vivo. To be noted: foliar, 144 h, incubation 6 days. The procedure: Sunflower leaf discs are placed on agar in a 24-well microtiter plate and sprayed with test solutions. After drying, the leaf discs are infested with a thrips population of mixed ages. After an incubation period of 6 days, samples are checked for mortality and special effects (e.g. phytotoxicity).

In data set [7] the test system is Spodoptera littoralis (Cotton Leafworm). Kind of data set: Systemic insecticide test for Spodoptera littoralis, maize seedlings, 12.5 ppm (Example B9). The settings on record: 96 h, 12.5 ppm in water, systemic via maize seedlings, larvae incubated four days. It counts as in vivo. The procedure: Four day old maize seedlings (Zea mais, variety Stoneville) are placed individual in vials containing 24 ml water into which the chemical is diluted at 12.5 ppm. Seedlings are allowed to grow for six days. Subsequently leaves are cut and placed in a Petri dish (5 cm diameter), inoculated with twelve to fifteen 1st instar S. littoralis larvae and incubated for four days in a growth chamber (25° C., 50% r.h., 18:6 L:D photo period). Number of alive insects are counted and percentage of dead calculated. Tests were conducted with one replicate.

The melting point is the temperature of the solid-liquid transition. `Cc1cc(Cl)cc(C(=O)NC2(C)C[S+]([O-])C2)c1NC(=O)c1cc(Br)nn1-c1ncccc1Cl` (stereo not drawn) yielded a melting point of 244 to 247 °C.

As for `Cc1cc(Cl)cc(C(=O)NC2(C)CS(=O)(=O)C2)c1NC(=O)c1cc(Br)nn1-c1ncccc1Cl`, the melting point lay within 191 to 193 °C.

For the compound `Cc1cc(Cl)cc(C(=O)NC2CS(=O)(=O)C2)c1NC(=O)c1cc(C(F)F)nn1-c1ncccc1Cl`, the melting point is 151 to 155 °C.

`Cc1cc(Cl)cc(C(=O)NC2(C)C[S+]([O-])C2)c1NC(=O)c1cc(OCC(F)(F)F)nn1-c1ncccc1Cl` (stereo not drawn) showed a melting point of 220 to 222 °C.

As to `CCC1(NC(=O)c2cc(Cl)cc(C)c2NC(=O)c2cc(C(F)(F)F)nn2-c2ncccc2Cl)CS(=O)(=O)C1`, the melting point lay in the range of 234 to 236 °C.

For orientation: pest or weed control means the degree to which the test organism was suppressed or injured, in per cent. For `Cc1cc(Cl)cc(C(=O)NC2C(C)(C)S(=O)(=O)C2(C)C)c1NC(=O)c1cc(C(F)(F)F)nn1-c1ncccc1Cl` [T16.1.1], the pest or weed control at 400 ppm in data set [1], in data set [2] and in data set [3] was > 80% in each case.

Take `Cc1cc(Cl)cc(C(=O)NC2(C)C[S+]([O-])C2)c1NC(=O)c1cc(C(F)F)nn1-c1ncccc1Cl` (stereo not drawn): the melting point lay in the range of 169 to 173 °C.

For `Cc1cc(C#N)cc(C(=O)NC2(C)CS(=O)(=O)C2)c1NC(=O)c1cc(C(F)F)nn1-c1ncccc1Cl`, the melting point fell in the range of 238 to 241 °C.

In the case of `CCC1(NC(=O)c2cc(C#N)cc(C)c2NC(=O)c2cc(OCC(F)(F)F)nn2-c2ncccc2Cl)CS(=O)(=O)C1` [T13.1.113], the pest or weed control at 400 ppm in data set [4], in data set [5], in data set [6], in data set [1], in data set [2] and in data set [3] was > 80% each time. Further, in data set [7], the pest or weed control at 12.5 ppm was > 80%.

The compound `Cc1cc(C#N)cc(C(=O)NC2(C)C[S+]([O-])C2)c1NC(=O)c1cc(Br)nn1-c1ncccc1Cl` (stereo not drawn) yielded a melting point of 244 to 249 °C.

As for `Cc1cc(Cl)cc(C(=O)NC2CS(=O)(=O)C2(C)C)c1NC(=O)c1cc(C(F)(F)F)nn1-c1ncccc1Cl` (stereo not drawn) [T15.1.1], the pest or weed control at 400 ppm in data set [4], in data set [1], in data set [2] and in data set [3] was > 80% throughout. Further, in data set [7], the pest or weed control at 12.5 ppm was > 80%.

In the case of `Cc1cc(C#N)cc(C(=O)NC2C(C)(C)S(=O)(=O)C2(C)C)c1NC(=O)c1cc(C(F)(F)F)nn1-c1ncccc1Cl` [T16.1.91], the pest or weed control at 400 ppm in data set [4], in data set [6], in data set [1], in data set [2] and in data set [3] was > 80% throughout.

On to `Cc1cc(C#N)cc(C(=O)NC2C[S+]([O-])C2)c1NC(=O)c1cc(C(F)F)nn1-c1ncccc1Cl` (stereo not drawn), for which the melting point fell in the range of 230 to 233 °C.

In the case of `Cc1cc(Cl)cc(C(=O)NC2CS(=O)(=O)C2)c1NC(=O)c1cc(C(F)(F)F)nn1-c1ncccc1Cl` [T13.1.1], the pest or weed control at 400 ppm in data set [4], in data set [5], in data set [6], in data set [1], in data set [2] and in data set [3] was > 80% throughout. In data set [7], the pest or weed control at 12.5 ppm was > 80%.

Take `Cc1cc(Cl)cc(C(=O)NC2C[S+]([O-])C2)c1NC(=O)c1cc(C(F)(F)F)nn1-c1ncccc1Cl` (single isomer, unassigned): the melting point lay within 241 to 244 °C.

As to `CCC1(NC(=O)c2cc(Cl)cc(C)c2NC(=O)c2cc(Br)nn2-c2ncccc2Cl)CS(=O)(=O)C1` [T13.1.8], the pest or weed control at 400 ppm in data set [4], in data set [1], in data set [2] and in data set [3] was > 80% in each case. In data set [7], the pest or weed control at 12.5 ppm is > 80%.

With `Cc1cc(C#N)cc(C(=O)NC2CS(=O)(=O)C2)c1NC(=O)c1cc(OCC(F)(F)F)nn1-c1ncccc1Cl` [T13.1.111], the pest or weed control at 400 ppm in data set [4], in data set [6], in data set [1], in data set [2] and in data set [3] was > 80% in each case.

Turning to `Cc1cc(C#N)cc(C(=O)NC2(C)CS(=O)(=O)C2)c1NC(=O)c1cc(OCC(F)(F)F)nn1-c1ncccc1Cl`, the melting point was 216 to 219 °C.

Consider `CCC1(NC(=O)c2cc(C#N)cc(C)c2NC(=O)c2cc(C(F)(F)F)nn2-c2ncccc2Cl)CS(=O)(=O)C1` [T13.1.93], for which the pest or weed control at 400 ppm in data set [5], in data set [6], in data set [1], in data set [2] and in data set [3] was > 80% each time.

As for `CCC1(NC(=O)c2cc(Cl)cc(C)c2NC(=O)c2cc(OCC(F)(F)F)nn2-c2ncccc2Cl)CS(=O)(=O)C1` [T13.1.23], the pest or weed control at 400 ppm in data set [4], in data set [1], in data set [2] and in data set [3] was > 80% throughout. Moreover, in data set [7], the pest or weed control at 12.5 ppm is > 80%.

`Cc1cc(Cl)cc(C(=O)NC2(C)CS(=O)(=O)C2)c1NC(=O)c1cc(C(F)F)nn1-c1ncccc1Cl`: the melting point is 170 to 173 °C.

Consider `Cc1cc(Cl)cc(C(=O)NC2(C)CS(=O)(=O)C2)c1NC(=O)c1cc(OCC(F)(F)F)nn1-c1ncccc1Cl`, for which the melting point is > 250 °C.

Take `Cc1cc(Cl)cc(C(=O)NC2(C)CN(Cc3ccccc3)C2)c1NC(=O)c1cc(C(F)(F)F)nn1-c1ncccc1Cl` [T44.1.2, 2-(3-chloro-pyridin-2-yl)-5-trifluoromethyl-2H-pyrazole-3-carboxylic acid [4-chloro-2-methyl-6-(3-methyl-N-benzylazetidine-3-ylcarbamoyl)-phenyl]-amide]: the pest or weed control at 400 ppm in data set [4], in data set [6], in data set [1], in data set [2] and in data set [3] was > 80% each time. Further, the pest or weed control at 12.5 ppm in data set [7] was > 80%.

Compound `Cc1cc(Cl)cc(C(=O)NC2C[S+]([O-])C2)c1NC(=O)c1cc(C(F)F)nn1-c1ncccc1Cl` (stereo not drawn) showed a melting point of 171 to 173 °C.

In turn, `Cc1cc(C#N)cc(C(=O)NC2(C)C[S+]([O-])C2)c1NC(=O)c1cc(OCC(F)(F)F)nn1-c1ncccc1Cl` (stereo not drawn) gave a melting point of 223 to 225 °C.

Compound `Cc1cc(C#N)cc(C(=O)NC2CS(=O)(=O)C2)c1NC(=O)c1cc(C(F)F)nn1-c1ncccc1Cl` displayed a melting point of 158 to 160 °C.

Turning to `Cc1cc(Cl)cc(C(=O)NC2CS(=O)(=O)C2)c1NC(=O)c1cc(Br)nn1-c1ncccc1Cl` [T13.1.6], the pest or weed control at 400 ppm in data set [4], in data set [5], in data set [6], in data set [1], in data set [2] and in data set [3] was > 80% each time. Also, the pest or weed control at 12.5 ppm in data set [7] is > 80%.

Regarding `Cc1cccc(C(=O)NC2CS(=O)(=O)C2)c1NC(=O)c1cc(C(F)(F)F)nn1-c1ncccc1Cl` [T13.1.361], the pest or weed control at 12.5 ppm in data set [7] is > 80%. Besides, the pest or weed control at 400 ppm in data set [1], in data set [2] and in data set [3] was > 80% in each case.

As to `Cc1cc(C#N)cc(C(=O)NC2(C)C[S+]([O-])C2)c1NC(=O)c1cc(C(F)F)nn1-c1ncccc1Cl` (stereo not drawn), the melting point lay within 235 to 237 °C.
